Reference: the supplement of paper PMC10307832

What was measured:
Assay in all cases: relative viability (nuclei count vs DMSO), 5 days (fraction); higher = more cells survive
[1] = compound: C/C(=N\NC(=S)N1CCC1)/C2=CC=CC=N2 + COc1cccc2cc(-c3nc([C@H]4CC[C@H](C(=O)O)CC4)n4ncnc(N)c34)[nH]c12 [OSI-027] (partner 0.5 µM)
How it was run: (§1)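 Lung cancer cell lines were pin-tool dosed in 1536-well plates on the day after seeding, with either a lone drug or a fixed anchor-drug dose plus five library-drug doses (not always all listed) in √10 steps. Nuclei were counted on 4× images after 5 days. Relative viability is the ratio of treated-well to vehicle-well nuclei counts, with each value a median of duplicate plates.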

[2] = compound: C/C(=N\NC(=S)N1CCC1)/C2=CC=CC=N2 + CS(=O)(=O)CCNCc1ccc(-c2ccc3ncnc(Nc4ccc(OCc5cccc(F)c5)c(Cl)c4)c3c2)o1 [Lapatinib] (partner 2 µM)
How it was run: as §1

[3] = compound: C/C(=N\NC(=S)N1CCC1)/C2=CC=CC=N2 + C[C@]1(O)C[C@@H](c2nc(-c3ccc4ccc(-c5ccccc5)nc4c3)c3c(N)nccn32)C1 [Linsitinib] (partner 1 µM)
How it was run: as §1

[4] = compound: C/C(=N\NC(=S)N1CCC1)/C2=CC=CC=N2 + Cc1nc(NC(=O)N2CCC[C@H]2C(N)=O)sc1-c1ccnc(C(C)(C)C(F)(F)F)c1 [Alpelisib] (partner 2 µM)
How it was run: as §1

Cell Line	relative viability ([1]; first compound 0.05 µM)	relative viability ([1]; first compound 0.1581 µM)	relative viability ([1]; first compound 0.5 µM)	relative viability ([1]; first compound 1.581 µM)	relative viability ([1]; first compound 5 µM)	relative viability ([2]; first compound 0.05 µM)	relative viability ([2]; first compound 0.1581 µM)	relative viability ([2]; first compound 0.5 µM)	relative viability ([2]; first compound 1.581 µM)	relative viability ([2]; first compound 5 µM)	relative viability ([3]; first compound 0.05 µM)	relative viability ([3]; first compound 0.1581 µM)	relative viability ([3]; first compound 0.5 µM)	relative viability ([3]; first compound 1.581 µM)	relative viability ([3]; first compound 5 µM)	relative viability ([4]; first compound 0.05 µM)	relative viability ([4]; first compound 0.1581 µM)	relative viability ([4]; first compound 0.5 µM)	relative viability ([4]; first compound 1.581 µM)	relative viability ([4]; first compound 5 µM)
HCC-78	0.299	0.354	0.332	0.237	0.23	0.0064	0.211	0.226	0.158	0.178	0.299	0.251	0.189	0.161	0.175	0.257	0.252	0.177	0.153	0.158
HCC-366	0.0452	0.0275	0.0339	0.0481	0.0279	0.0217	0.0257	0.0157	0.0217	0.0218	0.0558	0.0147	0.0179	0.0206	0.0189	0.0241	0.013	0.0152	0.0166	0.0137
HCC-827	0.288	0.281	0.156	0.176	0.168	0.161	0.168	0.201	0.211	0.19	0.716	0.968	0.338	0.3	0.187	0.556	1.01	0.264	0.279	0.186
HOP-62	0.104	0.0907	0.101	0.111	0.102	0.0752	0.0868	0.0479	0.0716	0.0698	0.162	0.968	0.0703	0.0888	0.0655	0.105	0.895	0.0809	0.0743	0.0607
IA-LM	–	–	–	–	–	0.0819	0.067	0.0525	0.0618	0.0601	0.0757	0.0841	0.0585	0.0612	0.0387	0.0645	0.0816	0.0594	0.0596	0.0781
LC-2-ad	0.282	0.295	0.277	0.179	0.227	0.113	0.122	0.106	0.112	0.122	0.131	0.155	0.11	0.099	0.146	0.126	0.109	0.107	0.104	0.0953
LCLC-97TM1	0.111	0.175	0.185	0.138	0.158	0.0934	0.101	0.0997	0.0662	0.107	0.117	0.176	0.1	0.105	0.108	0.107	0.203	0.107	0.106	0.112
LCLC-103H	0.178	0.22	0.217	0.2	0.19	–	–	–	–	–	0.389	0.99	0.262	0.309	0.238	0.34	0.978	0.24	0.257	0.233
LK-2	0.141	0.174	0.177	0.167	0.142	0.171	0.25	0.201	0.144	0.199	0.14	0.154	0.18	0.114	0.125	0.182	0.28	0.283	0.176	0.243
LOU-NH91	0.412	0.476	0.447	0.388	0.396	0.399	0.434	0.487	0.383	0.357	0.466	0.509	0.424	0.407	0.422	0.485	0.442	0.407	0.382	0.424
LU99A	0.186	0.182	0.161	0.162	0.177	0.153	0.132	0.136	0.128	0.172	0.189	0.132	0.117	0.155	0.172	0.174	0.0993	0.112	0.142	0.135
LXF-289	0.2	0.223	0.222	0.146	0.0943	0.322	0.278	0.275	0.24	0.14	0.508	0.325	0.248	0.226	0.131	0.539	0.307	0.278	0.147	0.141
NCI-H441	0.181	0.173	0.16	0.143	0.168	–	–	–	–	–	0.145	0.15	0.117	0.0833	0.108	0.159	0.173	0.174	0.166	0.146
NCI-H522	–	0.341	0.495	–	0.561	–	–	–	–	–	–	–	–	–	–	–	–	–	–	–
NCI-H1299	–	–	–	–	–	0.192	0.221	0.197	0.185	0.143	0.0879	0.112	0.133	0.152	0.145	0.094	0.195	0.213	0.213	0.15
NCI-H1648	0.309	0.279	0.351	0.314	0.307	–	–	–	–	–	–	–	–	–	–	–	–	–	–	–
NCI-H1650	0.158	0.216	0.17	0.152	0.184	0.257	0.204	0.192	0.267	0.199	–	–	–	–	–	–	–	–	–	–
NCI-H1703	–	–	–	–	–	0.185	0.153	0.17	0.168	0.178	0.0702	0.0548	0.068	0.0799	0.121	0.0878	0.0975	0.132	0.112	0.122
NCI-H2170	0.34	0.294	0.237	0.217	0.158	0.24	0.2	0.203	0.192	0.188	–	–	–	–	–	0.747	0.731	0.177	0.173	0.17
NCI-H2342	0.288	0.263	0.27	0.264	0.262	–	–	–	–	–	–	–	–	–	–	–	–	–	–	–
SW 900	0.0629	0.1	0.0605	0.0573	0.119	–	–	–	–	–	–	–	–	–	–	–	–	–	–	–
